Assay results as given in patent publication US8673974B2, “Substituted amino bisphenyl pentanoic acid derivatives as NEP inhibitors” (Novartis AG, priority 2010, dated 2014).

Target: T1, recombinant human neutral endopeptidase (NEP, EC 3.4.24.11) (Homo sapiens, UniProt P08473)
T1 construct: made in house; host or cells: insect cells
Assay: in vitro inhibition of recombinant human neutral endopeptidase (fluorescence lifetime assay)
Type: biochemical
Conditions: recombinant human NEP 7 pM, 1 hour pre-incubation, substrate Cys(PT14)-Arg-Arg-Leu-Trp-OH 0.7 μM, read after 1 hour at room temperature, pH 7.4
Excerpt: The activity of a compound according to the present invention can be assessed by the following in vitro & in vivo methods and/or by the following in vitro & in vivo methods well-described in the art. See A fluorescence lifetime-based assay for protease inhibitor profiling on human kallikrein 7 Doering K, Meder G, Hinnenberger M, Woelcke J, Mayr L M, Hassiepen U Biomol Screen.
In particular, the in vitro inhibition of recombinant human neutral endopeptidase (NEP, EC 3.4.24.11) can be determined as follows: […]

T1 sequence (P08473 whole entry): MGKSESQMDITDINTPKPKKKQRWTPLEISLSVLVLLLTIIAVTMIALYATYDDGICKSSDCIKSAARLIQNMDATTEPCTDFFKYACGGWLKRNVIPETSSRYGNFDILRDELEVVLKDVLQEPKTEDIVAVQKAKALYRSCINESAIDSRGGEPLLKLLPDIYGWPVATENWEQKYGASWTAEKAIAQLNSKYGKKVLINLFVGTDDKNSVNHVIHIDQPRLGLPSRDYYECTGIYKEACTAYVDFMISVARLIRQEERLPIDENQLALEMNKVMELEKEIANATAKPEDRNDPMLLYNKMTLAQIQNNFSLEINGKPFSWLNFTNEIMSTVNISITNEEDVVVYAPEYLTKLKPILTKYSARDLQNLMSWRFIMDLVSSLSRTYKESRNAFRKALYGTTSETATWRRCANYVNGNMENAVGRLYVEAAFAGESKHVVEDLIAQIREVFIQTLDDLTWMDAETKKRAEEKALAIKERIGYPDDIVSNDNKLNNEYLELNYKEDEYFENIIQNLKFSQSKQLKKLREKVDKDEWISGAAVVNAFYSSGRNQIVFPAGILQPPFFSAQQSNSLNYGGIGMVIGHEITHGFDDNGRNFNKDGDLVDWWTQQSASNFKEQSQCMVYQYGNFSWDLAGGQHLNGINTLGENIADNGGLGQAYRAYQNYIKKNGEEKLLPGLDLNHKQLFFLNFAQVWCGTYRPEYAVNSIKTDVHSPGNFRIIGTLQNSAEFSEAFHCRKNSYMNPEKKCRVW

- IC50: 3 nM
SMILES: COc1ccccc1-c1ccc(C[C@H](CC(C)C(=O)O)NC(=O)CCC(=O)O)cc1 (stereo partly drawn) [Example 6, (S)-4-(3-Carboxy-propionylamino)-5-(2′-methoxy-biphenyl-4-yl)-2-methyl-pentanoic acid]
